The term IC50 denotes the concentration that inhibits the measured activity by half. One may read the inhibition as how much of the control response was suppressed.

Experiment in all cases: CXCR6 receptor antagonists, dose response, cell-based, beta-arrestin, DiscoveRx, APJ panel, uHTS hits (AID 624129)
The target of assay [1] is Beta-galactosidase (Escherichia coli) (UniProt Q8VNN2). The conditions noted are these: CXCR6 beta-arrestin (DiscoveRx) antagonist cell assay, b-galactosidase.
In assay [2] the target is Apelin receptor (Homo sapiens) (UniProt P35414). The conditions noted are these: CXCR6 beta-arrestin (DiscoveRx) antagonist cell assay, APJ.
Assay [3] addresses C-C chemokine receptor type 6 (Homo sapiens) (UniProt P51684). The note with it: CXCR6 beta-arrestin (DiscoveRx) antagonist cell assay.
Assay [4] addresses C-X-C chemokine receptor type 6 (Homo sapiens) (UniProt O00574). The conditions noted are these: CXCR6 beta-arrestin (DiscoveRx) antagonist cell assay.
Where [5] appears, read: dose range 1, mean IC50 across replicates.
[6] abbreviates: CCR6, dose range 1, mean IC50 across replicates.
Setting [7] is: CXCR6, dose range 1, mean IC50 across replicates.

The source made the active and inactive calls. The rule behind the calls is not given here.

Chain of C-X-C chemokine receptor type 6 (Homo sapiens) (O00574 whole entry, looked up): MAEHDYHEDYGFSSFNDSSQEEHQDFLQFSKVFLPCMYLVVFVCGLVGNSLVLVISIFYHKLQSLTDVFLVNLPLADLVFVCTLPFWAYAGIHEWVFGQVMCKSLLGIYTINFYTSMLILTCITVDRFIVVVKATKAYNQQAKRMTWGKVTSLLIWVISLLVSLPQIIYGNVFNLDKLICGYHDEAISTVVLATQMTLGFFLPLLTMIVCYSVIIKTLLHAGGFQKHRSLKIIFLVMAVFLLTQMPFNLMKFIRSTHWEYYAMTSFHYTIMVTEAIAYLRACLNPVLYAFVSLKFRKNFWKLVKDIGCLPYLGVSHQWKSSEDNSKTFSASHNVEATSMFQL
Chain of Beta-galactosidase (Escherichia coli) (Q8VNN2 whole entry, looked up): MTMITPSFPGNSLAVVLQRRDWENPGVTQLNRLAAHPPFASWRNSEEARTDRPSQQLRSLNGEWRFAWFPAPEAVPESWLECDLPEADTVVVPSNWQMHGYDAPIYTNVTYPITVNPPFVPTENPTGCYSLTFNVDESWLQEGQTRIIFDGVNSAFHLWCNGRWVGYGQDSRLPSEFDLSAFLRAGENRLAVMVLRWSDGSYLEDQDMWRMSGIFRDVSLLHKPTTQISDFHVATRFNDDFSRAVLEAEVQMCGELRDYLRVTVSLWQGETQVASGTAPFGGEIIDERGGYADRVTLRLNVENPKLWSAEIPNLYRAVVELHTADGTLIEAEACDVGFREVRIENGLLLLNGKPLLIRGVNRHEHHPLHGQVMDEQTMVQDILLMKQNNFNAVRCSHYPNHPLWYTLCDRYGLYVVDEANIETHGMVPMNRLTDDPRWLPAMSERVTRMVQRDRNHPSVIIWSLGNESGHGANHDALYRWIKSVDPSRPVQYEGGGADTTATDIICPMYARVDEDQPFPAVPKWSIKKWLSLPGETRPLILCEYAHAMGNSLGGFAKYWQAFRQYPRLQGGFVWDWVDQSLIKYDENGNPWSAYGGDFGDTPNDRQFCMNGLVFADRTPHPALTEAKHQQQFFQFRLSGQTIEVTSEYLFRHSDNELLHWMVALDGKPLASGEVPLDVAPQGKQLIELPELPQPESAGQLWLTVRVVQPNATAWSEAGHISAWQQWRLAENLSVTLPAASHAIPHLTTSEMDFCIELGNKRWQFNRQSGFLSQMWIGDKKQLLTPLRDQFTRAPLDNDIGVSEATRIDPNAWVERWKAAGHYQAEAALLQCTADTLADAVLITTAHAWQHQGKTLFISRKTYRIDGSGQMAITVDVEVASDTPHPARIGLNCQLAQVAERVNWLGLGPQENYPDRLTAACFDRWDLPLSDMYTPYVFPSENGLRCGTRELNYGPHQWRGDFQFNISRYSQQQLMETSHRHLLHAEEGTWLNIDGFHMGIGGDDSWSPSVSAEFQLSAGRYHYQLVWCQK

In the case of `CC(C)c1ccc(O)c(NC(=S)NC(=O)c2cccnc2)c1`, the IC50 result in assay [1] (dose range 1) is “inactive”; in assay [4] (CXCR6, dose range 1), “inactive”. For the same compound, the IC50 is 51.9 µM in assay [1] (setting [5]); 8.65 µM in assay [2] (dose range 1); 9.87 µM in assay [2] (setting [5]); 10.6 µM in assay [2] (run 2, dose range 1); 10.4 µM in assay [2] (run 3, dose range 1); 10.6 µM in assay [3] (CCR6, dose range 1). Besides, the IC50 in assay [3] (setting [6]) turned out to be 10 µM; in assay [3] (CCR6, run 2, dose range 1) it was 9.43 µM; in assay [4] (setting [7]), 14.9 µM; in assay [4] (CXCR6, run 1, dose range 2), 12.7 µM; in assay [4] (CXCR6, run 2, dose range 1) it was 20.7 µM; in assay [4] (CXCR6, run 2, dose range 2), 8.67 µM.
`O=Cc1s/c(=N\S(=O)(=O)c2ccccc2)n(CCCCl)c1Cl`: the IC50 in assay [1] (dose range 1) was 15.9 µM; in assay [1] (setting [5]), 15.9 µM; in assay [2] (dose range 1), 6.78 µM; in assay [2] (setting [5]) it was 6.28 µM; in assay [2] (run 2, dose range 1) it was 5.42 µM; in assay [2] (run 3, dose range 1) it was 6.63 µM. The IC50 in assay [3] (CCR6, dose range 1) is 2.79 µM; in assay [3] (setting [6]) it was 3.11 µM; in assay [3] (CCR6, run 2, dose range 1), 3.43 µM; in assay [4] (CXCR6, dose range 1), 4.95 µM; in assay [4] (setting [7]), 4.83 µM; in assay [4] (CXCR6, run 1, dose range 2), 5.13 µM. Besides, the IC50 in assay [4] (CXCR6, run 2, dose range 1) stood at 4.89 µM; in assay [4] (CXCR6, run 2, dose range 2), 4.35 µM.
Turning to `S=C(N/N=C/c1ccccc1)N1CCOCC1`, the IC50 in assay [1] (dose range 1) is > 80 µM (inactive); in assay [1] (setting [5]) it was more than 80 µM; in assay [2] (dose range 1), 6.85 µM; in assay [2] (setting [5]), 7 µM; in assay [2] (run 2, dose range 1), 7.06 µM; in assay [2] (run 3, dose range 1), 7.08 µM. Besides, the IC50 in assay [3] (CCR6, dose range 1) is 5.59 µM; in assay [3] (setting [6]), 6.34 µM; in assay [3] (CCR6, run 2, dose range 1), 7.09 µM; in assay [4] (CXCR6, dose range 1), 7.03 µM; in assay [4] (setting [7]), 6.19 µM; in assay [4] (CXCR6, run 1, dose range 2), 4.47 µM. The IC50 in assay [4] (CXCR6, run 2, dose range 1) worked out at 8.46 µM; in assay [4] (CXCR6, run 2, dose range 2) it was 4.81 µM.
For the compound `Cc1ccc(C(=O)/C=C/C(=O)c2ccc(C)cc2)cc1`, the IC50 in assay [1] (dose range 1) was > 80 µM (inactive); in assay [1] (setting [5]), more than 80 µM; in assay [2] (setting [5]) it was more than 80 µM; in assay [2] (run 2, dose range 1), more than 80 µM; in assay [2] (run 3, dose range 1) it was more than 80 µM; in assay [3] (setting [6]) it was more than 80 µM. Further, the IC50 in assay [3] (CCR6, run 2, dose range 1) was more than 80 µM; in assay [4] (CXCR6, dose range 1), > 80 µM (inactive); in assay [4] (setting [7]), more than 80 µM; in assay [4] (CXCR6, run 2, dose range 1), more than 80 µM. The inhibition in assay [4] (CXCR6, run 1, dose range 2, at 80 µM (top of the series)) is 19.4%.
As for `Cc1c(CCCl)c(Cl)n2c(nc3ccccc32)c1C#N`, the IC50 in assay [1] (dose range 1) is > 80 µM (inactive); in assay [1] (setting [5]), more than 80 µM; in assay [2] (dose range 1), > 80 µM (inactive); in assay [2] (setting [5]) it was more than 80 µM; in assay [2] (run 2, dose range 1), more than 80 µM; in assay [2] (run 3, dose range 1) it was more than 80 µM. For the same compound, the IC50 in assay [3] (setting [6]) is 41.5 µM; in assay [3] (CCR6, run 2, dose range 1), 51.1 µM; in assay [4] (setting [7]), 6.38 µM; in assay [4] (CXCR6, run 1, dose range 2), 5.75 µM; in assay [4] (CXCR6, run 2, dose range 1), more than 80 µM; in assay [4] (CXCR6, run 2, dose range 2), 7.02 µM. In addition, the IC50 result in assay [3] (CCR6, dose range 1) was “inactive”.
With `CN(c1ccccc1)S(=O)(=O)c1ccc(NC(=O)c2nc(S(C)(=O)=O)ncc2Cl)cc1`, the IC50 was > 80 µM (inactive) in assay [1] (dose range 1); more than 80 µM in assay [1] (setting [5]); 7.36 µM in assay [2] (dose range 1); 7.72 µM in assay [2] (setting [5]); 7.88 µM in assay [2] (run 2, dose range 1); 7.91 µM in assay [2] (run 3, dose range 1). Further, the IC50 in assay [3] (CCR6, dose range 1) is 6.25 µM; in assay [3] (setting [6]), 5.69 µM; in assay [3] (CCR6, run 2, dose range 1), 5.13 µM; in assay [4] (CXCR6, dose range 1), 6.05 µM; in assay [4] (setting [7]), 7.41 µM; in assay [4] (CXCR6, run 1, dose range 2), 8.06 µM. The IC50 in assay [4] (CXCR6, run 2, dose range 1) stood at 6.38 µM; in assay [4] (CXCR6, run 2, dose range 2) it was 9.16 µM.
As to `C=C1C(=O)[C@]23C[C@H]1CCC2[C@@]1(C)C(C[C@@H]3O)[C@](C)(C(=O)OC)CC[C@@H]1OC(C)=O` (stereo partly drawn), the IC50 is > 80 µM (inactive) in assay [1] (dose range 1); more than 80 µM in assay [1] (setting [5]); 9.62 µM in assay [2] (dose range 1); 21.3 µM in assay [2] (setting [5]); 8.73 µM in assay [2] (run 2, dose range 1); 45.6 µM in assay [2] (run 3, dose range 1). For the same compound, the IC50 is 4.15 µM in assay [3] (CCR6, dose range 1); 4.67 µM in assay [3] (setting [6]); 5.2 µM in assay [3] (CCR6, run 2, dose range 1); 7.07 µM in assay [4] (CXCR6, dose range 1); 7.02 µM in assay [4] (setting [7]); 8.75 µM in assay [4] (CXCR6, run 1, dose range 2). The half-inhibitory concentration (IC50) in assay [4] (CXCR6, run 2, dose range 1) was 5.41 µM; in assay [4] (CXCR6, run 2, dose range 2), 6.85 µM.
On to `CCC1CCCCN1S(=O)(=O)c1ccc(NC(=O)c2nc(S(C)(=O)=O)ncc2Cl)cc1` (stereo not drawn), for which the IC50 in assay [1] (dose range 1) was > 80 µM (inactive); in assay [1] (setting [5]), more than 80 µM; in assay [2] (dose range 1), 7.03 µM; in assay [2] (setting [5]), 6.68 µM; in assay [2] (run 2, dose range 1), 7.18 µM; in assay [2] (run 3, dose range 1), 5.85 µM. Also, the IC50 in assay [3] (CCR6, dose range 1) was 5.24 µM; in assay [3] (setting [6]), 5.53 µM; in assay [3] (CCR6, run 2, dose range 1), 5.82 µM; in assay [4] (CXCR6, dose range 1), 7.42 µM; in assay [4] (setting [7]) it was 8.97 µM; in assay [4] (CXCR6, run 1, dose range 2), 10.4 µM. In addition, the IC50 in assay [4] (CXCR6, run 2, dose range 1) was determined as 7.17 µM; in assay [4] (CXCR6, run 2, dose range 2), 10.9 µM.

Values taken from PubChem BioAssay AID624129 (Sanford-Burnham Center for Chemical Genomics, 2012).
